{
  "source": "patent US20050266509A1",
  "about": "“Interaction of NMDA receptor with protein tyrosine phosphatase” (AGY Therapeutics, Inc., priority 2003, published 2005)",
  "type_in_all_cases": "biochemical",
  "key": {"CD45": {"target": "T1, CD45 (Homo sapiens, UniProt P08575)", "T1 sequence (P08575 26-1306)": "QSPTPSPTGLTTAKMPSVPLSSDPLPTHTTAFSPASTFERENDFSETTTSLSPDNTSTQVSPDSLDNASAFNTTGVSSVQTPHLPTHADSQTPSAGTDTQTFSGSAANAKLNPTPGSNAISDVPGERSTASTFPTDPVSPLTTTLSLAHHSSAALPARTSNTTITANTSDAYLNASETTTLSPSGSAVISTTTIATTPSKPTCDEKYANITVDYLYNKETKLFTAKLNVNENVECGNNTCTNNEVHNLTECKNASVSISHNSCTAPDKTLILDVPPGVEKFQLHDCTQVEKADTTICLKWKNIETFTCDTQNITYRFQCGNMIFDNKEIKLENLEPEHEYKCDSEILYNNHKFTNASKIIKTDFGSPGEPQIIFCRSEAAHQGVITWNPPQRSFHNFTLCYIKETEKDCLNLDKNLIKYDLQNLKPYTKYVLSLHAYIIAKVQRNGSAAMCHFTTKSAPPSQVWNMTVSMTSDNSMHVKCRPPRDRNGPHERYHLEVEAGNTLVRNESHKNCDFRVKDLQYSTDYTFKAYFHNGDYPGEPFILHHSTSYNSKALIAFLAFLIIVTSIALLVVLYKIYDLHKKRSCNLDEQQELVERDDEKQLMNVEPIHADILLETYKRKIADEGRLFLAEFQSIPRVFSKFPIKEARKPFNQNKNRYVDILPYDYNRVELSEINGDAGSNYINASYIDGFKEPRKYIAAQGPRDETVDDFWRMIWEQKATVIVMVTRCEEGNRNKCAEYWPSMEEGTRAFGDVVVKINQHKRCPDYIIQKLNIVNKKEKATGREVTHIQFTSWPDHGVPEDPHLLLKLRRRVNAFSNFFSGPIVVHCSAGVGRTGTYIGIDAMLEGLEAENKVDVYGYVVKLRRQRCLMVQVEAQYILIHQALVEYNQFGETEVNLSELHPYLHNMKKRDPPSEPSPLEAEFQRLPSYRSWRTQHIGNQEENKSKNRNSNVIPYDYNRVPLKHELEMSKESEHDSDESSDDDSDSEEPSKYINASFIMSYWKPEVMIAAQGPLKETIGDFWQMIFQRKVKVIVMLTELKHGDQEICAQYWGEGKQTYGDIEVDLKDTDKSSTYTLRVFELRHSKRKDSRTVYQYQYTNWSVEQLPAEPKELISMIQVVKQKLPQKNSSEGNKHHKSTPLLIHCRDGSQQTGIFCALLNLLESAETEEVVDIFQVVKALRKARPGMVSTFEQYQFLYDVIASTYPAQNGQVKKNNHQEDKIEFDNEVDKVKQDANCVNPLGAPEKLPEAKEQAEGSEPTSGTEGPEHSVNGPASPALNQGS", "assay": "FRET phosphatase assay, CD45", "protocol": "(§1) For the enzyme activity assay, 2.5 μl of compound, 12.5 μl of enzyme, and 10 μl of substrate (separated by air gaps) are added to columns 3 through 24 by the Biomek FX in a single dispense. After the dispense, the tips are washed with DMSO and water for re-use between each quadrant. Once the assay plates are set up, they are incubated at 27° C. for 45 minutes. Then 20 μl of detection buffer is added to stop the reaction and to allow the Europium antibody (Eu-Ab) and streptavidin-APC to bind to the substrate.\n(§2) The plates are then placed in the plate reader, an Analyst HT. Excitation light at 360 nm is used to excite the Europium antibody with an emission at 620 nm. Fluorescence resonance energy transfer (FRET) from Eu-Ab to APC will only occur when they are in close proximity. Therefore, when an APC emission is observed at 665 nm the enzyme has been inhibited from removing the phosphate group from the substrate. The FRET assay is time-resolved (TR), where there is a delay between excitation light and collection of emission signals. This reduces the amount of stray light created by short-lived fluorescing molecules. The Analyst HT measures APC and Europium emission signals and calculates the ratio between the two intensities. Typical intensities for the Europium is ˜2000 and APC is ˜600.\n(§3) The following compounds were tested by FRET against the listed phosphatases, and the IC50 were obtained. […]"}, "PTPIB": {"target": "T2, PTPIB (Homo sapiens, UniProt P18031)", "T2 sequence (P18031 1-435)": "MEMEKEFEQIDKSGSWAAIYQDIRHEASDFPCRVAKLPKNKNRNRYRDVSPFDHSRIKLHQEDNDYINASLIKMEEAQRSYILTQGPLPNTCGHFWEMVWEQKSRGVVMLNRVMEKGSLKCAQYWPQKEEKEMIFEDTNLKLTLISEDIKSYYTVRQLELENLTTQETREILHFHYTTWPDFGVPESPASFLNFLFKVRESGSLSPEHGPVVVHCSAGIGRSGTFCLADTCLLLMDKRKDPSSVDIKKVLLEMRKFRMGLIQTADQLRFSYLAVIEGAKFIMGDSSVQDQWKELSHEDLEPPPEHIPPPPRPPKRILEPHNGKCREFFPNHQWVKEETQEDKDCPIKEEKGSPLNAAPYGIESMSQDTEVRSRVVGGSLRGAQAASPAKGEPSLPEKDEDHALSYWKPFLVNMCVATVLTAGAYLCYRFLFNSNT", "assay": "FRET phosphatase assay, PTPIB", "protocol": "as §1, §2, §3"}, "PTPB": {"target": "PTPB (Homo sapiens, UniProt P23467)", "sequence (P23467 1643-1997 limits assumed)": "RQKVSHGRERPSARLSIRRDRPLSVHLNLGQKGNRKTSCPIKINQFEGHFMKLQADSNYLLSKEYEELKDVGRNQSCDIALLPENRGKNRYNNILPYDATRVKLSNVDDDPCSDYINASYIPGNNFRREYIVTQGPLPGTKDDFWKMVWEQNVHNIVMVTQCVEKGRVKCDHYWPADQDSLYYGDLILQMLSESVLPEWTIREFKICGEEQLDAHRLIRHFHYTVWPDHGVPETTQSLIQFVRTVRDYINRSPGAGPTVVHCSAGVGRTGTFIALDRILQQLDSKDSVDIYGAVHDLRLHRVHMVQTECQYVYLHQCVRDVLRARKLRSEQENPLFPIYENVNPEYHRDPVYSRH", "assay": "FRET phosphatase assay, PTPB", "protocol": "as §1, §2, §3"}, "T Cell": {"target": "T3, T Cell (Homo sapiens, UniProt P17706)", "T3 sequence (P17706 1-415)": "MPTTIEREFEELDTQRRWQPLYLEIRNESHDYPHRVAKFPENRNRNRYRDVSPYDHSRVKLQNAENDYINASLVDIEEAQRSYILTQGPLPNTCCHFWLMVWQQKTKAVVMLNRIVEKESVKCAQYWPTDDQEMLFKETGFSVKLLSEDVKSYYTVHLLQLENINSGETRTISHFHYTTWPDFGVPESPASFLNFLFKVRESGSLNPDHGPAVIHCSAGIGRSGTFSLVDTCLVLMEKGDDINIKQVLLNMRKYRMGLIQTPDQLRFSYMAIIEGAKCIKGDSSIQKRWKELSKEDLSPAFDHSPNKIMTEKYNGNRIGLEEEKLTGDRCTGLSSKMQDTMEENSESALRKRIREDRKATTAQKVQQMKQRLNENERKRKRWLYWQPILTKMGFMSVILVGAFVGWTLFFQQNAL", "assay": "FRET phosphatase assay, T Cell", "protocol": "as §1, §2, §3"}, "YOP51": {"target": "YOP51 (Yersinia enterocolitica, UniProt P15273)", "sequence (P15273 whole entry)": "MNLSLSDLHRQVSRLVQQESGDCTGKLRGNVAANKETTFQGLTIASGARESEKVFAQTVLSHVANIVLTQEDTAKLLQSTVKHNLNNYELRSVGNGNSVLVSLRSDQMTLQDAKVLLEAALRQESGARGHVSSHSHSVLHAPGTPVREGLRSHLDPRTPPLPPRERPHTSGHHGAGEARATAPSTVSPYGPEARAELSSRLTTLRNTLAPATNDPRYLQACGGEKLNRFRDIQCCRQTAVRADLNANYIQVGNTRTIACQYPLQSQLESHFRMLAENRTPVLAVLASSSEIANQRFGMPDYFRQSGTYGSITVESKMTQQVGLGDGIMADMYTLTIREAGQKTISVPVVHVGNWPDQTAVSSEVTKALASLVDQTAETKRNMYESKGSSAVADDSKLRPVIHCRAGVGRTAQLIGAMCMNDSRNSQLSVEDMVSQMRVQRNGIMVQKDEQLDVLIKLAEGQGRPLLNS", "assay": "FRET phosphatase assay, YOP51", "protocol": "as §1, §2, §3"}},
  "data": [
    {"smiles": "CCOC(=O)C(=CC1=C/C(=C/N(C)C)C(=O)O1)C(=O)OCC", "note": "[AGY- 0046293]", "values": [
      {"measurement": "IC50", "setting": "CD45", "result": 90, "unit": "µM"},
      {"measurement": "IC50", "setting": "PTPIB", "result": 41.1, "unit": "µM"},
      {"measurement": "IC50", "setting": "PTPB", "result": 23.2, "unit": "µM"},
      {"measurement": "IC50", "setting": "T Cell", "result": 6720, "unit": "µM"},
      {"measurement": "IC50", "setting": "YOP51", "result": 4.18, "unit": "µM"}
    ]}
  ]
}
